Data taken from US20260295137A1, “METHOD FOR REMOVING UREMIC TOXINS FROM BLOOD” (INSTITUT NATIONAL DE LA SANTÉ ET DE LA RECHERCHE MÉDICALE, priority 2023, published 2026).

Key:
human serum albumin [1] = target: T1, human serum albumin (Homo sapiens, UniProt P02768); assay: Ultrafiltration competition assay: displacement of IS from HSA; assay type: binding; details: IS 250 μmol/L, HSA 500 μM; for free fraction of IS: displacer 3 mM, pH 7.40, median (IQR), baseline 10.0%; for concentration dependence of increase in free fraction of IS: displacer 1-3 mM
T1 construct: purchased Sigma-Aldrich (Saint Quentin Fallavier, France) A9511
T1 sequence (P02768 25-609): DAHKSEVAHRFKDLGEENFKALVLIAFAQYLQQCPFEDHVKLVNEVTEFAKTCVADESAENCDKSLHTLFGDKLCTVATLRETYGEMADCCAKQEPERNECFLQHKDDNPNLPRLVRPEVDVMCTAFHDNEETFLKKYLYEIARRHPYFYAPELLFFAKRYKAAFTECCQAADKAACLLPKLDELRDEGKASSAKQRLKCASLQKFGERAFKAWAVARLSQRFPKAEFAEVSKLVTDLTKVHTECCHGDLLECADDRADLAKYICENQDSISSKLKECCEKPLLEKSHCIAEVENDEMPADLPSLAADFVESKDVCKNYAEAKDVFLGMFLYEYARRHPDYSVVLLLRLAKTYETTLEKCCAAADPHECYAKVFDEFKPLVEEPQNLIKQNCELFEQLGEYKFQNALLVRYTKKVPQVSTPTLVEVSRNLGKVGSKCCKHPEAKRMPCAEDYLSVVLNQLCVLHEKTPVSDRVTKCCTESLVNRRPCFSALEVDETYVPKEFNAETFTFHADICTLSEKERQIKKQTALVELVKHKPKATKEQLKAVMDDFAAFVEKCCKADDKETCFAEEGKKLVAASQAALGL
Description: (§1) Control experiments were performed by adding the same volume of PBS instead of displacer. Then, 600 μL of samples were transferred in filtration devices (Corning®, Spin-X® UF Concentrator, Wiesbaden, Germany, MWCO: 5 kDa) and were centrifuged at 10,000 g for 5 min and 13,000 g for 15 min at room temperature. Ultrafiltrate was collected and free fraction of IS concentration were assayed fluorometrically as described thereafter.
(§2) Samples were diluted in PBS and fluorescence was measured with a Jasco FP-8300iRM Spectro-fluorometer (Jasco, Tokyo, Japan).
The free fraction of IS was measured using ultrafiltration experiments as described as described above.

human serum albumin [2] = target: T1, human serum albumin; assay: Ultrafiltration competition assay: displacement of p-CS from HSA; assay type: binding; details: for free fraction of p-CS: displacer 3 mM, median (IQR), baseline 14%
Description: as §1, §2
The free fraction of p-CS was measured using ultrafiltration experiments as described as described above.

In vitro hemolysis assay = assay type: cell-based, bovine; details: bovine, blood, 37° C., control 1.5%; for hemolysis at 4 h, 3000 µM: 3 mmol/L; for hemolysis at 4 h: MCFA 1-3 mmol/L (exact concentration not stated), median (IQR)
Description: (§3) One milliliter of fresh bovine blood was incubated for 4 h at 37° C. with 50 μL of a solution of medium chain fatty acids (final concentration: 0.25, 0.5, 1, 2 or 3 mmol/L) or PBS as control. A positive control of hemolysis (taken as 100% hemolysis) was produced by incubating 1 mL of bovine blood with 0.1% (v/v) of TRITON X100 followed by 2 freeze-thaw cycles. Samples were centrifuged 2 min at 9000×g and plasma was stored at −20° C. until free hemoglobin assay. Hemolysis was estimated by the free hemoglobin concentration. Hemoglobin concentration was determined spectrophotometrically as described by Fairbanks et al (Clin Chem. 1992 January; 38 (1): 132-40). Briefly, plasma samples were diluted to 1:10 in Na2CO3 9.4 mmol/L and absorbance was read at 415 nm, 450 nm and 700 nm on a microplate reader (Tecan, Lyon, France).
(§4) Free hemoglobin concentration was calculated using the following equation: […]
(§5) Wherein: • fHb is the concentration of free hemoglobin in g/L, • A is the absorbance at the specified wavelength, • d is the dilution factor.
(§6) Results were expressed as percent of total hemolysis.
(§7) Fresh bovine blood was incubated for 4 h (the full duration of a typical hemodialysis session) at 37° C. in presence of MCFAs (1-3 mmol/L) and dosage of free hemoglobin in plasma was taken as an index of hemolysis (FIG. 6A-D).

fresh bovine blood = assay: In vitro hemolysis assay; assay type: cell-based; details: 4 h, 37° C.; for hemolysis compared to control: 1-3 mmol/L
Description: as §3, §4, §5, §6, §7

[3] = Hemodialysis of fresh bovine blood (closed loop): removal of IS
Source text: (§8) To assess the reality of the displacement and the increase of the removal of PBUT during a hemodialysis session, batches of 20 liters of fresh bovine blood were collected from the slaughterhouse under the authorization VC18731 (Oct. 4, 2018) issued from the Direction Départmentale de la Protection des Populations—Direction des Services Vétérinaires (DDPP-DSV, Lyon, France). Blood was heparinized at 3,750 UI/L with Sodium Heparin (Choay, Cheplapharm, France) and filtered on a nylon mesh. Two liters of blood (2 L) were spiked with 200 μmol/L of IS and gently stirred for 2 hours at 37° C. A 2-hour hemodialysis session was performed with Fresenius 5008 CorDiax hemodialysis generator (Fresenius, Sevres, France) and with a polysulfone-based hemodialysis membrane (FXHDF1000, 2.2 m^2, Fresenius Medical Care, Bad Homburg, Germany). Arterial and venous port were disposed in the blood batch to perform a closed loop circuit (see representation of the experimental device on FIG. 1). Blood and dialysate flow rates were set at 200 and 300 mL/min, respectively and dialysate temperature was set at 38° C. […] Blood samples were collected from the arterial lines at 0, 15, 30, 45, 60, 75, 90 and 120 minutes. Blood was centrifuged at 9,000 g for 2 minutes and plasma was stored at −20° C. […] At the beginning and the end of the experiment, hemolysis was estimated through the measurement of free hemoglobin in plasma as described above. Total protein concentration was measured according to the method of Lowry using bovine serum albumin as standard. Hematocrit was measured using a micromethod (Mondal H, Lotfollahzadeh S. Hematocrit. 2023 Jan. 2. In: StatPearls [Internet]. Treasure Island (FL): StatPearls Publishing; 2023). Briefly, 70 μL of blood was collected in a heparinized capillary tube. The end of the capillary tube was sealed with clay sealant and centrifuged at a rate of 9000 rpm for 5 min. The hematocrit level was read using a microhematocrit card reader.
(§9) 5-Hydroxyindole-2-carboxylic acid (5-HICA) was used as an internal standard in all experiments. Plasma samples were centrifugated at 17 000 rpm for 5 minutes. 125 μL of the supernatant was then pretreated using the Ostro Pass-through Sample Preparation Device (Waters, Saint-Quentin-en-Yvelines, France), including an in-well protein precipitation with acetonitrile (375 μL) in combination with a pass-through method that allows a good extraction. Eluants were evaporated to dryness in a gentle stream of nitrogen gas. […] Total PBUT concentrations were determined by a reverse phase HPLC with an isocratic flow at 0.2 ml/min. p-CS and IS were determined by fluorescence analysis (excitation λex: 270 nm; emission λem: 320 nm).

[4] = Hemodialysis of fresh bovine blood (closed loop): removal of p-CS
Source text: as §8, §9

pigs = assay: In vivo hemodialysis in anesthetized pigs: tolerance
[5] = In vivo hemodialysis in anesthetized pigs: removal of IS; details: octanoate vs saline, 2 h HD; P<0.05
[6] = In vivo hemodialysis in anesthetized pigs: removal of p-CS; details: octanoate vs saline, 2 h HD; P<0.05
bovine red blood cells = assay: Hemodialysis of fresh bovine blood: hematocrit, hemolysis, plasma protein; details: continuous infusion of octanoate for 2 h
[7] = background art; cited from earlier work

CCCCCCCCCC(=O)O [Decanoate, decanoic acid]
free fraction of IS (human serum albumin [1]): 54% (52%-58%)
free fraction of p-CS (human serum albumin [2]): 59% (57%-63%)
hemolysis at 4 h, 3000 µM (In vitro hemolysis assay): 21.9%

CCCCCCCCCCCC(=O)O [Dodecanoate, dodecanoic acid]
free fraction of IS (human serum albumin [1]): 42% (41%-44%)
concentration dependence of increase in free fraction of IS (human serum albumin [1]): dose dependently increased the free fraction of IS
hemolysis at 4 h, 500 µM (In vitro hemolysis assay; 0.5 mmol/L): 15.3%
hemolysis at 4 h, 3000 µM (In vitro hemolysis assay): 24.9%
concentration triggering hemolysis (fresh bovine blood; bovine blood): higher than 0.25 mmol/L

CCCCCC(=O)O [Hexanoate, hexanoic acid]
free fraction of IS (human serum albumin [1]): 36% (34%-39%)
concentration dependence of increase in free fraction of IS (human serum albumin [1]): only increased the free fraction of IS at the highest concentration tested
free fraction of p-CS (human serum albumin [2]): 36% (34%-41%)
concentration dependence of increase in free fraction of p-CS (human serum albumin [2]; highest concentration 3 mM): only increased the free fraction of p-CS at the highest concentration tested
hemolysis at 4 h (In vitro hemolysis assay): 3.6%
hemolysis compared to control (fresh bovine blood): did not trigger any significant hemolysis

CCCCCCCC(=O)O [Octanoate, octanoic acid]
hemolysis at 4 h (In vitro hemolysis assay): 2.3%
hemolysis compared to control (fresh bovine blood): did not trigger any significant hemolysis
fractional removal of IS ([3]; 2 h HD, octanoate infusion, control 36%, p<0.001): 91%
half-life of IS in plasma ([3]; octanoate infusion, control 36.4 min): 15.2 min
increase of fractional removal of IS ([3]; octanoate vs control, p<0.001): 2.5 folds
toxin removal, IS ([3]; per-dialytic infusion of octanoate, control 1.5 μmol/min): 3.5 µmol/min
fractional removal of p-CS ([4]; 2 h HD, octanoate infusion, control 38%, p<0.001): 88%
half-life of p-CS in plasma ([4]; octanoate infusion, control 20.6 min): 12.8 min
increase of fractional removal of p-CS ([4]; octanoate vs control, p<0.001): 2.3 folds
toxin removal, pCS ([4]; per-dialytic infusion of octanoate, control 0.3 μmol/min): 1 μmol/min
hemolysis (pigs; hematocrit and free hemoglobin, sodium octanoate i.v. during HD): no hemolysis
tolerance (pigs; sodium octanoate 333 mmol/L i.v. at 18 mL/h, 2 h HD): Tolerance of all animals was good and no side effect was noticed
increase of dialytic clearance of IS [5]: +113%
increase of dialytic clearance of p-CS [6]: +101%
change in hematocrit (bovine red blood cells): did not elicit any significant change in hematocrit
change in hemolysis levels (bovine red blood cells): did not elicit any significant change in hematocrit or hemolysis levels

CCCCC/C=C\C/C=C\CCCCCCCC(=O)O [linoleic acid]
effect on dyslipidemia [7]: exacerbate dyslipidemia

CCCCCCCC/C=C\CCCCCCCC(=O)O [oleic acid]
effect on dyslipidemia [7]: exacerbate dyslipidemia
